These are literature values, as cited in patent US20140030241A1 (NESTEC S.A., priority 2011, published 2014).

For one data set, the system named is IgG and IgM response. The following applies: rodents.
The subject of a further data set is Candida albicans. The following applies: rodents on nucleotide free diet, Candida albicans challenge.
For data set [1] the following is noted: enters circulation without being metabolized by the liver.
In the next data set the test system is Splenic lymphocytes. The following applies: rodents on nucleotide free diets, additions to the diet.

For the compound `Nc1ncnc2c1ncn2[C@@H]1O[C@H](COP(=O)(O)O)[C@@H](O)[C@H]1O` [AMP, 5-Adenosine Monophosphate], in the data set with IgG and IgM response, the IgG response result was “increased IgG response”.

Turning to `Nc1nc2c(ncn2[C@@H]2O[C@H](COP(=O)(O)O)[C@@H](O)[C@H]2O)c(=O)[nH]1` [GMP, 5′-Guanosine Monophosphate], in the data set with IgG and IgM response, the IgG response entry was “increased IgG response” and the IgM response result was “increase IgM response”.

Take `O=c1ccn([C@@H]2O[C@H](COP(=O)(O)O)[C@@H](O)[C@H]2O)c(=O)[nH]1` [UMP, 5′-Uracil Monophosphate]: the IgG response entry in the data set with IgG and IgM response is recorded as “increased IgG response”.

Take `Nc1ncnc2nc[nH]c12` [adenine]: in the data set on Candida albicans, the survival time result is recorded as “not”.

With `NC(=O)NCCC[C@H](N)C(=O)O` [citrulline], the “conversion to arginine in the kidneys” value in data set [1] is given as “almost complete”.

As for `O=c1cc[nH]c(=O)[nH]1` [uracil], the “suppressed cell-mediated immune responses (proliferation to mitogens, IL-2 production, IL-2 receptor and Lyt-1 markers, delayed cutaneous hypersensitivity)” value with Splenic lymphocytes is on record as “largely reversed”. For the same compound, in the data set with Candida albicans, the survival time entry is recorded as “increase survival time”.
